Laboratory results taken from the kinase profiling compilation of Christmann-Franck et al. (2016).

Assays:
Test in all cases: radiometric filter-binding kinase assay, Kinase HotSpot
Settings in all cases: compound 0.5 µM; ATP 10 µM
CAMK1 (human) = CAMK1 (human) (UniProt Q14012)
TBK1 (human) = TBK1 (human) (UniProt Q9UHD2)
ADRBK1 (human) = ADRBK1 (human) (UniProt P25098)
STK11 (human) = STK11 (human) (UniProt Q15831)
MAPK9 (human) = MAPK9 (human) (UniProt P45984)
FES (human) = FES (human) (UniProt P07332)
AKT3 (human) = AKT3 (human) (UniProt Q9Y243)
CDK9 CCNT1 (human) = CDK9 CCNT1 (human) (UniProt P50750+O60563)
PASK (human) = PASK (human) (UniProt Q96RG2)
RIPK2 (human) = RIPK2 (human) (UniProt O43353)
STK16 (human) = STK16 (human) (UniProt O75716)
JAK2 JH1 JH2 (human) = JAK2 JH1 JH2 (human) (UniProt O60674)
CLK2 (human) = CLK2 (human) (UniProt P49760)
ERBB4 (human) = ERBB4 (human) (UniProt Q15303)
TGFBR1 (human) = TGFBR1 (human) (UniProt P36897)
IRAK4 (human) = IRAK4 (human) (UniProt Q9NWZ3)
NLK (human) = NLK (human) (UniProt Q9UBE8)
MYLK (human) = MYLK (human) (UniProt Q15746)
KDR (human) = KDR (human) (UniProt P35968)
CHEK1 (human) = CHEK1 (human) (UniProt O14757)
DYRK2 (human) = DYRK2 (human) (UniProt Q92630)
BLK (human) = BLK (human) (UniProt P51451)
DYRK4 (human) = DYRK4 (human) (UniProt Q9NR20)
TAOK1 (human) = TAOK1 (human) (UniProt Q7L7X3)
DYRK1B (human) = DYRK1B (human) (UniProt Q9Y463)
EPHA2 (human) = EPHA2 (human) (UniProt P29317)
CAMK1G (human) = CAMK1G (human) (UniProt Q96NX5)
CDK7 CCNH MNAT1 (human) = CDK7 CCNH MNAT1 (human) (UniProt P50613+P51948+P51946)
RET (human) = RET (human) (UniProt P07949)
MAPK13 (human) = MAPK13 (human) (UniProt O15264)
FGFR2 (human) = FGFR2 (human) (UniProt P21802)
NTRK2 (human) = NTRK2 (human) (UniProt Q16620)
CSNK1A1 (human) = CSNK1A1 (human) (UniProt P48729)
MLTK (human) = MLTK (human) (UniProt Q9NYL2)
MAPK3 (human) = MAPK3 (human) (UniProt P27361)
PKN1 (human) = PKN1 (human) (UniProt Q16512)
SYK (human) = SYK (human) (UniProt P43405)
ADRBK2 (human) = ADRBK2 (human) (UniProt P35626)
DCLK2 (human) = DCLK2 (human) (UniProt Q8N568)
NEK6 (human) = NEK6 (human) (UniProt Q9HC98)
FLT1 (human) = FLT1 (human) (UniProt P17948)
TGFBR2 (human) = TGFBR2 (human) (UniProt P37173)

CAMK1 (human), sequence (Q14012 whole entry, looked up): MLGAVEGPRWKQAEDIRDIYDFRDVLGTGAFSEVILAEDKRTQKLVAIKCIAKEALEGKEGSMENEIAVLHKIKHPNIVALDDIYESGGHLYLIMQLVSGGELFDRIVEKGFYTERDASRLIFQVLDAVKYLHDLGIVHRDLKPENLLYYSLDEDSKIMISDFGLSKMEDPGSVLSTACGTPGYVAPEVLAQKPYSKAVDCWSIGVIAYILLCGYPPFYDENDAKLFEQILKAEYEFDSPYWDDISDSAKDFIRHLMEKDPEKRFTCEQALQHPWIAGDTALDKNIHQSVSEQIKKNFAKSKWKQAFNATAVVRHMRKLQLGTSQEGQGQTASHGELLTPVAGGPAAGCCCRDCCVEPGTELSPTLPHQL
FES (human), sequence (P07332 whole entry, looked up): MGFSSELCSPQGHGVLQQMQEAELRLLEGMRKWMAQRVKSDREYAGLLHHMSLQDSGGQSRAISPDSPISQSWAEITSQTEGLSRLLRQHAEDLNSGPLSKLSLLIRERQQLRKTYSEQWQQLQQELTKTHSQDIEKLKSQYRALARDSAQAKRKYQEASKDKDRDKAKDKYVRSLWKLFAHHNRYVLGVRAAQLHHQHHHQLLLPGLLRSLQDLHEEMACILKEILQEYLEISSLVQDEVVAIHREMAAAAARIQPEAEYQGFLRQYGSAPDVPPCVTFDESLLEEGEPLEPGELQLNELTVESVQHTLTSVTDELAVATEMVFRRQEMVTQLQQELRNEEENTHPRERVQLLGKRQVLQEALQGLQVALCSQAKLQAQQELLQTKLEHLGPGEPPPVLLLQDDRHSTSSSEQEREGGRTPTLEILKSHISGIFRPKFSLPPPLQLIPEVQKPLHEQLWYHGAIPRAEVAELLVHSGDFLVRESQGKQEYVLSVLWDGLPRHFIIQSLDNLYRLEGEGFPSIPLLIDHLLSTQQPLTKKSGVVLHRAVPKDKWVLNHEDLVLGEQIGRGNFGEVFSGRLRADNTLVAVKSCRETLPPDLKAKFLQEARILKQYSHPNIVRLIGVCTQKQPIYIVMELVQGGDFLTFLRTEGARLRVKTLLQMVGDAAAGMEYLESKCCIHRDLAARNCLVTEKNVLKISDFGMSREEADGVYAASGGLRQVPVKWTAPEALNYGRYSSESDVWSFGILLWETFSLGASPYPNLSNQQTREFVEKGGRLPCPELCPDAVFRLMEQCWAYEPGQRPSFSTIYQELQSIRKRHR
DYRK4 (human), sequence (Q9NR20 whole entry, looked up): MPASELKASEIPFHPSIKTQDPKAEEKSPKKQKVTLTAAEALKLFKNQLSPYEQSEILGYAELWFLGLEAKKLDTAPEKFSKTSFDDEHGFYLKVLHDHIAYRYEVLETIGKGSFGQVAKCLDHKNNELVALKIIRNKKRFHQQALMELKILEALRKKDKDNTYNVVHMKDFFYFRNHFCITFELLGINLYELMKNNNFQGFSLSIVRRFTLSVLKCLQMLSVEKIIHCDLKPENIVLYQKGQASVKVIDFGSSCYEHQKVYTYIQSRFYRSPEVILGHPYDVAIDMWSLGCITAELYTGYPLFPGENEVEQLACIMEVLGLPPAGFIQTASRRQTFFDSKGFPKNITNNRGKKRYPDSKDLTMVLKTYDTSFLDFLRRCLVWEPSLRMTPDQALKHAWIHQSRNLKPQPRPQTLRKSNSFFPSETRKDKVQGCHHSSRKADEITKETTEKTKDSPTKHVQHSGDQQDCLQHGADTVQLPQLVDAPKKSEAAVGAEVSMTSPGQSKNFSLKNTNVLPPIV
ADRBK1 (human), sequence (P25098 whole entry, looked up): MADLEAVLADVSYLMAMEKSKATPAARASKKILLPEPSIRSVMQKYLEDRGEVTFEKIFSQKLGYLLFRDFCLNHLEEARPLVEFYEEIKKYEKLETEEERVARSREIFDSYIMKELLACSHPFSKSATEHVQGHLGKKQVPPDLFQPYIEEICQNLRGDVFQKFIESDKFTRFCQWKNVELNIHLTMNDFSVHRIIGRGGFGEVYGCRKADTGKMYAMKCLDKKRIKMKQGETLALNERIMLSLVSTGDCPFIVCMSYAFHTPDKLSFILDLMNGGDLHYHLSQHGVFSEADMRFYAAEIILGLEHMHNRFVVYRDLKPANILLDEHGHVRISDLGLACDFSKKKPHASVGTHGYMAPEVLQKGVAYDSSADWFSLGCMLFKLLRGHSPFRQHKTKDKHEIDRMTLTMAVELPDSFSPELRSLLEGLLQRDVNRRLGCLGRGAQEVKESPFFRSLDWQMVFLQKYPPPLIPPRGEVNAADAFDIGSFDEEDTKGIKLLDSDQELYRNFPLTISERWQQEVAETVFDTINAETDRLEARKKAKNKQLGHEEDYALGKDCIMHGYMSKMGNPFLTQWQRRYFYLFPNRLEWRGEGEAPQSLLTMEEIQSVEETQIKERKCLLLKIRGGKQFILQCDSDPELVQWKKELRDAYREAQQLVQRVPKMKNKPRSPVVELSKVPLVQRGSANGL
TBK1 (human), sequence (Q9UHD2 whole entry, looked up): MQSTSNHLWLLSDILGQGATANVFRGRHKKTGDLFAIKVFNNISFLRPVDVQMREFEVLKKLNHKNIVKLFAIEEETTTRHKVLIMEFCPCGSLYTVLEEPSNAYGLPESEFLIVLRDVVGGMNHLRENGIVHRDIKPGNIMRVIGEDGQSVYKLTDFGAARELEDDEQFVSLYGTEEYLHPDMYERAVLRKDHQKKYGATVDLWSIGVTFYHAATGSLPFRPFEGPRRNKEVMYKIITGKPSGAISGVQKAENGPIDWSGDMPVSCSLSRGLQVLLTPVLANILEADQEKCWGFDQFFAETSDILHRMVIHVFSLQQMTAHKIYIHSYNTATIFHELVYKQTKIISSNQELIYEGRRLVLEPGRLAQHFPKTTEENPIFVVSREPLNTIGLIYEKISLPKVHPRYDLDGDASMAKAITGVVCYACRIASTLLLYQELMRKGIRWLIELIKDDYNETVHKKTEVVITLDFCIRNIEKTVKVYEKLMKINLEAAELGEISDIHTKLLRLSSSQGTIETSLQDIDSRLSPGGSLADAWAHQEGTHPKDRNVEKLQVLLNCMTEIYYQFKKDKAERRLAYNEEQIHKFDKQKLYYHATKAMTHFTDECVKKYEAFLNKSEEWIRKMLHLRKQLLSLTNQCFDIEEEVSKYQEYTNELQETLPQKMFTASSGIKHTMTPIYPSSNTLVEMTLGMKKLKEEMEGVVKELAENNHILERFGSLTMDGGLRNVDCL
RIPK2 (human), sequence (O43353 whole entry, looked up): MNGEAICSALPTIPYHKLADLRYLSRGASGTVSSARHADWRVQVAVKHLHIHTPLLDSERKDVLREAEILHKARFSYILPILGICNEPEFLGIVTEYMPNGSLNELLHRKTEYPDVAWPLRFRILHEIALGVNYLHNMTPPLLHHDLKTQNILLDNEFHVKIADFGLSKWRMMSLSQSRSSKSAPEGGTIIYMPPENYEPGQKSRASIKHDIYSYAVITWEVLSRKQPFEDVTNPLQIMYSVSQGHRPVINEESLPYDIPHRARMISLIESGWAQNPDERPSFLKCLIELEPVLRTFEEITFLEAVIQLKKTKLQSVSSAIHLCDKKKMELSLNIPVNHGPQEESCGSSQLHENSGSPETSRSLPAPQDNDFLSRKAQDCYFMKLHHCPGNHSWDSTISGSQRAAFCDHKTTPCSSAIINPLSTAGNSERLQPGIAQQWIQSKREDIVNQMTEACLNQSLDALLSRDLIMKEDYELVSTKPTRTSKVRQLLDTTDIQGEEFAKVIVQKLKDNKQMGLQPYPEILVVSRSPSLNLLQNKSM
CLK2 (human), sequence (P49760 whole entry, looked up): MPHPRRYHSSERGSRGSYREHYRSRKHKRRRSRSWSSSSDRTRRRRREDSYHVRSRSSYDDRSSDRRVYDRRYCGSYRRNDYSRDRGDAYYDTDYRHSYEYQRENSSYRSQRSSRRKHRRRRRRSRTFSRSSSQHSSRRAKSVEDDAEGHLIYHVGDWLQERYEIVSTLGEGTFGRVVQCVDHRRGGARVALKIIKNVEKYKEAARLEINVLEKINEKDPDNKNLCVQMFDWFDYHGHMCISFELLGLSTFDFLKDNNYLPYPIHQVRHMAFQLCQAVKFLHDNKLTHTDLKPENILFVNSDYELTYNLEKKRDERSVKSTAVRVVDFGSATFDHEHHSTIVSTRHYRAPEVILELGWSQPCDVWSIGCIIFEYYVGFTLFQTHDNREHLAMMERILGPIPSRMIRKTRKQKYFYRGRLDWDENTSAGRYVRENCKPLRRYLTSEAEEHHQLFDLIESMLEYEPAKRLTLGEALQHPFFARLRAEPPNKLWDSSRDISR
AKT3 (human), sequence (Q9Y243 whole entry, looked up): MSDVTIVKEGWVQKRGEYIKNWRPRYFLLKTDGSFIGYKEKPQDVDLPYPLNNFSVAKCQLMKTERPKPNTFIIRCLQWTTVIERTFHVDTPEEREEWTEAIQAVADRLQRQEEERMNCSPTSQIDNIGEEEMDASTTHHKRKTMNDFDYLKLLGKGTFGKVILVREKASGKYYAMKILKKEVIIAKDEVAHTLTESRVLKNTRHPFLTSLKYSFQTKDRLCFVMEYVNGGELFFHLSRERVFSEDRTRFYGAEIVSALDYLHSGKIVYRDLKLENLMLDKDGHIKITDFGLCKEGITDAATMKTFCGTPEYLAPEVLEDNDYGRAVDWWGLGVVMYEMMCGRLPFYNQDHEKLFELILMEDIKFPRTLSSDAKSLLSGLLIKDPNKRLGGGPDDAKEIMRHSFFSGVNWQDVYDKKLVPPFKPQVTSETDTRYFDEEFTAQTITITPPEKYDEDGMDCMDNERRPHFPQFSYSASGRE
NEK6 (human), sequence (Q9HC98 whole entry, looked up): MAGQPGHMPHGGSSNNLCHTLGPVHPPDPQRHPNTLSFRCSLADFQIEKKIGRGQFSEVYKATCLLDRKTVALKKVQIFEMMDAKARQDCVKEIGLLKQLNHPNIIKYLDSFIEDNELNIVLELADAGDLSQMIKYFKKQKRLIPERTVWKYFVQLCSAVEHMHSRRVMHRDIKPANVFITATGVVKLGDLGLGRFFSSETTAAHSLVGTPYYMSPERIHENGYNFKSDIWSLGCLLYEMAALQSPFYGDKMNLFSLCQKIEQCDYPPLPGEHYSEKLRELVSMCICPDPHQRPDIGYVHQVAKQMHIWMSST

SMILES: O=C1NC(=O)/C(=C\c2ccc3nccnc3c2)S1
- residual activity (CAMK1 (human)): 95.7%
- residual activity (TBK1 (human)): 90.6%
- residual activity (ADRBK1 (human)): 93.3%
- residual activity (STK11 (human)): 96.6%
- residual activity (MAPK9 (human)): 96%
- residual activity (FES (human)): 96.4%
- residual activity (AKT3 (human)): 104%
- residual activity (CDK9 CCNT1 (human)): 87.7%
- residual activity (PASK (human)): 87.7%
- residual activity (RIPK2 (human)): 76.8%
- residual activity (STK16 (human)): 91.9%
- residual activity (JAK2 JH1 JH2 (human)): 97.4%
- residual activity (CLK2 (human)): 74%
- residual activity (ERBB4 (human)): 99.4%
- residual activity (TGFBR1 (human)): 98.5%
- residual activity (IRAK4 (human)): 99.9%
- residual activity (NLK (human)): 92.4%
- residual activity (MYLK (human)): 97.1%
- residual activity (KDR (human)): 92.6%
- residual activity (CHEK1 (human)): 99.4%
- residual activity (DYRK2 (human)): 39.8%
- residual activity (BLK (human)): 99.4%
- residual activity (DYRK4 (human)): 96.5%
- residual activity (TAOK1 (human)): 82.8%
- residual activity (DYRK1B (human)): 31.3%
- residual activity (EPHA2 (human)): 99.9%
- residual activity (CAMK1G (human)): 105%
- residual activity (CDK7 CCNH MNAT1 (human)): 85.2%
- residual activity (RET (human)): 97.7%
- residual activity (MAPK13 (human)): 99.1%
- residual activity (FGFR2 (human)): 95%
- residual activity (NTRK2 (human)): 90.7%
- residual activity (CSNK1A1 (human)): 89.2%
- residual activity (MLTK (human)): 93.6%
- residual activity (MAPK3 (human)): 87.8%
- residual activity (PKN1 (human)): 101%
- residual activity (SYK (human)): 98%
- residual activity (ADRBK2 (human)): 111%
- residual activity (DCLK2 (human)): 94.3%
- residual activity (NEK6 (human)): 109%
- residual activity (FLT1 (human)): 87.5%
- residual activity (TGFBR2 (human)): 108%

SMILES: COc1cc2ncnc(N3CCN(C(=O)Nc4ccc(Oc5ccccc5)cc4)CC3)c2cc1OC
- residual activity (CAMK1 (human)): 96.9%
- residual activity (TBK1 (human)): 96.3%
- residual activity (ADRBK1 (human)): 96.7%
- residual activity (STK11 (human)): 105%
- residual activity (MAPK9 (human)): 88.4%
- residual activity (FES (human)): 98.3%
- residual activity (AKT3 (human)): 97.5%
- residual activity (CDK9 CCNT1 (human)): 97.3%
- residual activity (PASK (human)): 97.7%
- residual activity (RIPK2 (human)): 93.7%
- residual activity (STK16 (human)): 94.2%
- residual activity (JAK2 JH1 JH2 (human)): 99.3%
- residual activity (CLK2 (human)): 81.3%
- residual activity (ERBB4 (human)): 101%
- residual activity (TGFBR1 (human)): 99.5%
- residual activity (IRAK4 (human)): 83.5%
- residual activity (NLK (human)): 99.9%
- residual activity (MYLK (human)): 101%
- residual activity (KDR (human)): 82.7%
- residual activity (CHEK1 (human)): 99.4%
- residual activity (DYRK2 (human)): 95.4%
- residual activity (BLK (human)): 113%
- residual activity (DYRK4 (human)): 79.8%
- residual activity (TAOK1 (human)): 81.6%
- residual activity (DYRK1B (human)): 93.5%
- residual activity (EPHA2 (human)): 95.7%
- residual activity (CAMK1G (human)): 100%
- residual activity (CDK7 CCNH MNAT1 (human)): 103%
- residual activity (RET (human)): 104%
- residual activity (MAPK13 (human)): 104%
- residual activity (FGFR2 (human)): 92.4%
- residual activity (NTRK2 (human)): 121%
- residual activity (CSNK1A1 (human)): 108%
- residual activity (MLTK (human)): 96.2%
- residual activity (MAPK3 (human)): 102%
- residual activity (PKN1 (human)): 103%
- residual activity (SYK (human)): 93.2%
- residual activity (ADRBK2 (human)): 106%
- residual activity (DCLK2 (human)): 90.6%
- residual activity (NEK6 (human)): 103%
- residual activity (FLT1 (human)): 79%
- residual activity (TGFBR2 (human)): 102%

SMILES: COc1ccc(OC)c2c(=S)c3ccccc3[nH]c12
- residual activity (CAMK1 (human)): 75.2%
- residual activity (TBK1 (human)): 97.5%
- residual activity (ADRBK1 (human)): 92.5%
- residual activity (STK11 (human)): 84.4%
- residual activity (MAPK9 (human)): 102%
- residual activity (FES (human)): 102%
- residual activity (AKT3 (human)): 92%
- residual activity (CDK9 CCNT1 (human)): 98.8%
- residual activity (PASK (human)): 90.1%
- residual activity (RIPK2 (human)): 108%
- residual activity (STK16 (human)): 90%
- residual activity (JAK2 JH1 JH2 (human)): 96%
- residual activity (CLK2 (human)): 81.2%
- residual activity (ERBB4 (human)): 104%
- residual activity (TGFBR1 (human)): 99.1%
- residual activity (IRAK4 (human)): 109%
- residual activity (NLK (human)): 98.8%
- residual activity (MYLK (human)): 89.8%
- residual activity (KDR (human)): 108%
- residual activity (CHEK1 (human)): 92.7%
- residual activity (DYRK2 (human)): 96.8%
- residual activity (BLK (human)): 96.5%
- residual activity (DYRK4 (human)): 107%
- residual activity (TAOK1 (human)): 95.7%
- residual activity (DYRK1B (human)): 107%
- residual activity (EPHA2 (human)): 100%
- residual activity (CAMK1G (human)): 99.5%
- residual activity (CDK7 CCNH MNAT1 (human)): 91.7%
- residual activity (RET (human)): 82.8%
- residual activity (MAPK13 (human)): 103%
- residual activity (FGFR2 (human)): 95.8%
- residual activity (NTRK2 (human)): 94%
- residual activity (CSNK1A1 (human)): 102%
- residual activity (MLTK (human)): 94%
- residual activity (MAPK3 (human)): 103%
- residual activity (PKN1 (human)): 109%
- residual activity (SYK (human)): 100%
- residual activity (ADRBK2 (human)): 86.5%
- residual activity (DCLK2 (human)): 94.6%
- residual activity (NEK6 (human)): 101%
- residual activity (FLT1 (human)): 101%
- residual activity (TGFBR2 (human)): 109%
